This passage reports EC50 and IC50 results from paper PMC5576918, “Small molecule inhibition of apicomplexan FtsH1 disrupts plastid biogenesis in human pathogens” (eLife, 2017).

Like-named read-outs stand apart in the source and are kept apart here. A value given as a limit tells only on which side of the number the result lay.

The subject of experiment [1] is P. falciparum. Briefly: microbe, parasite or virus in culture. As to conditions: Plasmodium falciparum, Erythrocyte, 48 h, read-out: 48h. Details: species or system P. falciparum asexual blood stages in human erythrocytes; Blood-stage parasite growth inhibition over one lytic cycle, YOYO-1 parasitemia by flow cytometry. The procedure:
(§1) For P. falciparum EC50 calculations, growth assays were performed in 96 well plates containing serial dilution of drugs in triplicate. Media was supplemented with 200 uM IPP as indicated. Growth was initiated with ring-stage parasites (synchronized with 5% sorbitol treatment) at 1% parasitemia and 1% hematocrit. […] Parasitized cells were stained with 50 nM YOYO-1 (Invitrogen) overnight at room temperature and the parasitemia was determined by flow cytometry (BD Accuri C6 Sampler). Data were analyzed by BD Accuri C6 Sampler software. […] A single natural product antibiotic, actinonin, matched our criteria (Figure 1a) ([Gordon et al., 1962]). […] Because isoprenoid precursor biosynthesis is the only essential function of the apicoplast in blood-stage P. falciparum, any disruption of the apicoplast, including complete loss of the organelle, can be rescued by addition of the isoprenoid precursor, isopentenyl pyrophosphate (IPP), in the growth media ([Yeh and DeRisi, 2011]). […] Compared to chloramphenicol, actinonin clearly had more rapid antimalarial activity.

In experiment [2] the test system is P. falciparum. Description: microbe, parasite or virus in culture. Details: species or system P. falciparum asexual blood stages in human erythrocytes; Blood-stage parasite growth inhibition over two lytic cycles, YOYO-1 parasitemia by flow cytometry. As to conditions: Plasmodium falciparum, Erythrocyte, 96 h, read-out: 96h. The procedure: as §1
Experiment [3] deals with T1, PfFtsH1 (Plasmodium falciparum, UniProt Q8I526).
T1 construct: gene PF3D7_1239700; His6-SUMO-PfFtsH1_91-612-GST (AAA+ ATPase and peptidase domains, lacking transmembrane domain)
Description: ATP-dependent FITC-casein proteolysis by purified recombinant PfFtsH1, fluorescence. In kind it is biochemical.

T1 sequence (Q8I526 entry or part of it): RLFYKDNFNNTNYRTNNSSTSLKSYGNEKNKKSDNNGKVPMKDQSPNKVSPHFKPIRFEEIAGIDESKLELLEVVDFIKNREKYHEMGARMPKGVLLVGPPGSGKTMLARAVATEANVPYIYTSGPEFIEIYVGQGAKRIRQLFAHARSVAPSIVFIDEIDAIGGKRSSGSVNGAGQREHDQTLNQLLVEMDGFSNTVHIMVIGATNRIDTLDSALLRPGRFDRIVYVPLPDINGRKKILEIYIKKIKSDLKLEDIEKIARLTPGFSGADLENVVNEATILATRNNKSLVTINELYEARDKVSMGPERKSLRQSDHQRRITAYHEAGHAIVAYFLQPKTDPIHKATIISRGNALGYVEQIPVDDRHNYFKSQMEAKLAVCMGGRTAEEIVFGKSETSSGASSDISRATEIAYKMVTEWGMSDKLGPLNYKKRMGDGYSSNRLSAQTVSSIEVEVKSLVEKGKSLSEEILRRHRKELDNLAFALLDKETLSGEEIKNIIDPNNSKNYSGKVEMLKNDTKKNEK

Regarding `CC(C)C(=O)OC[C@H]1O[C@@H](n2ccc(N)nc2=O)[C@](C)(F)[C@@H]1OC(=O)C(C)C` [mericitabine], the EC50 in experiment [1] and in experiment [2] was above 200 µM in each case.
With `Nc1ccn([C@@H]2O[C@H](CO)[C@@H](O)[C@H]2F)c(=O)n1` [2'deoxy-2-F-cytidine], the EC50 in experiment [1] and in experiment [2] was above 200 µM each time.
On to `O=C(O)c1cn(C2CC2)c2cc(N3CCNCC3)c(F)cc2c1=O` [ciprofloxacin], for which the EC50 in experiment [1] stood at 24 µM; in experiment [2], 6 µM.
Turning to `CO[C@@H]1[C@@H](OC(N)=O)[C@@H](O)[C@H](Oc2ccc3c(O)c(NC(=O)c4ccc(O)c(CC=C(C)C)c4)c(=O)oc3c2C)OC1(C)C` [novobiocin], the figures for the EC50 in experiment [1] and in experiment [2] were 40 µM and 36 µM, respectively.
Turning to `CCCCC[C@H](CC(N)=O)C(=O)N[C@H](C(=O)N1CCC[C@H]1CO)C(C)C` [actinamide], the IC50 (as a rule, the concentration needed to halve the response being measured) in experiment [3] turned out to be 7.3 µM.
As to `CO[C@H]1/C=C/O[C@@]2(C)Oc3c(C)c(O)c4c(O)c(c(/C=N/N5CCN(C)CC5)c(O)c4c3C2=O)NC(=O)/C(C)=C\C=C\[C@H](C)[C@H](O)[C@@H](C)[C@@H](O)[C@@H](C)[C@H](OC(C)=O)[C@@H]1C` [rifampin], the EC50 in experiment [1] came out at 1 µM; in experiment [2] it was 2 µM.
In the same order, the values of `C[C@H]1COc2c(N3CCN(C)CC3)c(F)cc3c(=O)c(C(=O)O)cn1c23` [levofloxacin] are 70 µM and 16 µM.
Turning to `CCn1cc(C(=O)O)c(=O)c2cc(F)c(N3CCNCC3)nc21` [enoxacin], the EC50 was above 50 µM in experiment [1] and 5.7 µM in experiment [2].
As to `CCn1cc(C(=O)O)c(=O)c2cc(F)c(N3CCNCC3)cc21` [norfloxacin], the EC50 in experiment [1] turned out to be 40 µM; in experiment [2], 10 µM.
As to `CCCCC[C@H](CC(=O)NO)C(=O)N[C@H](C(=O)N1CCC[C@H]1CO)C(C)C` [actinonin], the EC50 in experiment [1] was 3.2 µM; in experiment [2], 2.7 µM.
